Results reported in patent US20130112218A1, “USE OF ELLAGIC ACID AS AN ANTI-DANDRUFF AGENT” (priority 2010, published 2013).

Legend:
[1] = system: yeasts of the Malassezia genus; assay: Test of effectiveness in an aqueous-alcoholic gel by leave-in application; assay type: in vivo; conditions: ellagic acid 0.5% by weight in aqueous-alcoholic gel A, two applications per week, after one week of treatment, 25 individuals with dandruff, corneodisc count, placebo 29%
Procedure: The aqueous-alcoholic gel for leave-in use A according to the invention was prepared according to the following table. The amounts are indicated as percent by weight of active material (A.M.) relative to the total weight of the composition. The study was carried out on a group of 25 individuals who had scalps with dandruff displaying an excessive proliferation of yeasts of the Malassezia genus. After two weeks of neutral shampoo, the individuals were treated with gel A of the invention or with an equal amount of a placebo comparative composition (identical composition without ellagic acid), at a rate of two applications per week. The yeasts per unit surface area were counted using a corneodisc sample of squamae.

[2] = system: scalps with dandruff displaying an excessive proliferation of yeasts of the Malassezia genus; assay: Test of effectiveness in a shampoo; assay type: in vivo; conditions: ellagic acid 1% by weight in shampoo B, rinsed out, twice a week for four weeks; 21 individuals with dandruff
Procedure: The shampoo B according to the invention was prepared according to the following table. The amounts are indicated as percent by weight of active material (A.M.) relative to the total weight of the composition. The study was carried out on a group of 21 individuals who had scalps with dandruff displaying an excessive proliferation of yeasts of the Malassezia genus. After two weeks of neutral shampoo, the shampoo composition B according to the invention was applied to the scalp for each individual. The composition was then rinsed out with water. This anti-dandruff treatment method was repeated twice a week for four weeks.

For `O=c1oc2c(O)c(O)cc3c(=O)oc4c(O)c(O)cc1c4c23` [ellagic acid, 2,3,7,8-tetrahydroxy(1)benzopyrano(5,4,3-cde)(1)benzopyran-5,10-dione], the “reduction in the number of Malassezia yeasts present on the scalp” value [1] was 56% and the anti-dandruff effectiveness [2] was “clear anti-dandruff effectiveness”.
